Test results: US9167820B2, “Anti-biofilm compounds” (priority 2011, dated 2015)

Tests used:
[1] = system: P. gingivalis adherence to streptococci (S. gordonii DL-1); test: Inhibition of P. gingivalis adherence to streptococci, two species biofilm culture model (confocal microscopy); type: cell-based; conditions: for P. gingivalis adherence to streptococci at 5 μM: 5 μM compound; for inhibition of P. gingivalis adherence, dose dependence: tested at final concentrations of 5, 20 or 60 μM, 24 hrs anaerobic incubation; for P. gingivalis adherence to streptococci at 20 μM: 20 μM compound
Procedure: Compounds 25, 27a, 34, 35 and 42 were tested to determine if they inhibited P. gingivalis adherence to streptococci using a two species biofilm culture model. Compounds of the invention (e.g. compounds of formula I) can also be tested using this method. A mid-exponential phase culture of S. gordonii DL-1 was harvested by centrifugation and the cells were suspended in phosphate buffered saline (PBS) at a density of 10^9 cfu/ml. A 1 ml aliquot was labeled with hexidium iodide (30 μM) for 15 minutes with gentle shaking. After washing three times with PBS, streptococci were suspended in growth medium and 100 μl was added to a 12 well microtiter plate (Grace Bio-Labs) and incubated anaerobically for 24 hrs.
P. gingivalis cells from an exponential culture were washed with PBS and labeled by reacting with 4 μg/ml carboxyfluorescein-succinyl ester for 30 minutes at 4° C. After washing three times with PBS, the cells were suspended in PBS at a density of 2×10^7 cfu/ml. The test compounds were dissolved in absolute ethanol to a final concentration of 30 mM and each was diluted into 100 μl P. gingivalis to final concentrations of 5, 20 or 60 μM and incubated for 30 minutes. After removal of unbound streptococci from the micotiter plate, P. gingivalis samples were then added to each well and incubated anaerobically for 24 hrs. A control well contained P. gingivalis that was pre-incubated with PBS alone.
Adherence of P. gingivalis to streptococci was analyzed using confocal laser scanning microscopy on an Olympus FluoView 500 inverted confocal microscope. Image stacks were acquired using Olympus FluoView software and rendered into 3 dimensional projections using Volocity Image Analysis software, where S. gordonii is depicted in red and P. gingivalis is shown in green/yellow. […] Compound 46 reduced P. gingivalis adherence to streptococci by 25% at 25 μM and by approximately 60% at 50 μM.

[2] = system: P. gingivalis biofilms on streptococci; test: Inhibition/disruption of P. gingivalis biofilms on streptococci by AgI/II-derived peptide; type: cell-based
Procedure: The plate assays above allow a quick examination of the kinetics of Mfa binding and inhibition of bacterial adherence. To determine if the Mfa-catalyzed compounds selected above inhibit the formation of P. gingivalis biofilms, or alternatively are capable of disrupting a pre-existing biofilm, dual species P. gingivalis-S. gordonii biofilms are grown and analyzed as previously described by Daep et al. (Daep, C. A., James, D. M., Lamont, R. J. and Demuth, D. R. 2006. Structural Characterization of Peptide-Mediated Inhibition of P. gingivalis Biofilm Formation. Infect. Immun. 74: 5756-5762; Daep, C. A., Lamont R. J. and Demuth, D. R. 2008. Interaction of P. gingivalis with oral streptococci requires a motif that resembles the eukaryotic nuclear receptor box protein-protein interaction domain. Infect. Immun. 76:3272-3280) using an open flow biofilm culture system. To determine if the inhibitors are capable of disrupting existing P. gingivalis-streptococcal biofilms, pre-formed biofilms are incubated with medium containing the inhibitor and analyzed as above. The inhibitors identified from the assays above are analyzed for in vivo efficacy in preventing P. gingivalis colonization in a mouse model of periodontitis.

P. gingivalis = test: Modified Baker mouse model of periodontitis (S. gordonii then P. gingivalis infection), alveolar bone loss; type: in vivo, Balb/cByJ mice; conditions: mice infected with S. gordonii and 10^7 cfu P. gingivalis; peptide added to the inoculum
Description: FIG. 6. Alveolar bone loss induced in Balb/cByJ mice in the presence and absence of BAR peptide. Sham infected animals were inoculated with CMC slurry without bacteria.
To determine how effectively the inhibitors limit or prevent P. gingivalis colonization in vivo, a modified Baker mouse model of periodontitis is used. The model is modified by first infecting with and establishing S. gordonii in the oral cavity of Balb/cByJ mice then subsequently challenging with P. gingivalis. In the presence of S. gordonii, a persistent infection of P. gingivalis (detected by 16S rDNA PCR 47 days post infection) can be established using an inoculum of 10^7 cfu. […] Thus, preventing P. gingivalis colonization of mice reduces alveolar bone loss.

With `Cc1nc(-c2ccccc2)c(-c2ccccc2)o1` [Compound 25, 2-Methyl-4,5-diphenyloxazole] the “P. gingivalis adherence to streptococci at 5 μM” value [1] was “completely inhibited”.
For `c1ccc(-c2nc(-c3ccccc3)c(-c3ccccc3)o2)cc1` [Compound 27a], the “P. gingivalis adherence to streptococci at a concentration of 60” value ([1]; concentration of 60 (unit not given)) was “completely blocked adherence” and the “inhibition of P. gingivalis adherence, dose dependence” value [1] was “dose dependent inhibition”.
`[N-]=[N+]=Nc1ccc(-c2nc(-c3ccccc3)c(-c3ccccc3)o2)cc1` [Compound 34, 2-(4-azidophenyl)-4,5-diphenyloxazole] was tested, and the “P. gingivalis adherence to streptococci at 5 μM” value [1] was “significantly reduced” and the “P. gingivalis adherence to streptococci at 20 μM” value [1] was “completely blocked adherence”.
In the case of `[N-]=[N+]=Nc1cccc(-c2nc(-c3ccccc3)c(-c3ccccc3)o2)c1` [Compound 35, 2-(3-azidophenyl)-4,5-diphenyloxazole], the “P. gingivalis adherence to streptococci at 20 μM” value [1] is reported as “significantly reduced adherence” and the “P. gingivalis adherence to streptococci at 60 μM” value ([1]; 60 μM compound) is reported as “completely blocked”.
With `[N-]=[N+]=NCc1nc(-c2ccccc2)c(-c2ccccc2)o1` [Compound 42, 2-(Azidomethyl)-4,5-diphenyloxazole] the “P. gingivalis adherence to streptococci at 20 μM” value [1] was “completely inhibited adherence” and the “inhibition of P. gingivalis adherence, dose dependence” value [1] was “dose dependent inhibition”.
For `CC(C)CNc1nc(NCC(C)C)nc(-c2ccccc2)n1` [Compound 46, N^2,N^4-Diisobutyl-6-phenyl-1,3,5-triazine-2,4-diamine], the “reduction of P. gingivalis adherence to streptococci at 25 μM” value ([1]; 25 μM compound) was 25% and the “reduction of P. gingivalis adherence to streptococci at 50 μM” value ([1]; 50 μM compound) was “approximately 60%”.
In the case of “LEAAPKKVQDLLKKANITVKGAFQLFS [BAR peptide]”, the “inhibition of P. gingivalis adherence and formation of biofilms on streptococcal substrates” value [2] is reported as “potently inhibits”, the “disruption of existing P. gingivalis biofilms” value ([2]; pre-existing biofilms) is reported as “capable of disrupting existing P. gingivalis biofilms” and the IC50 ([2]; read-out: I50, inhibition of development of P. gingivalis biofilms on streptococci) is reported as 1.3 µM. The alveolar bone loss (P. gingivalis) was “reduced to near sham infected levels”.
